{"source": "paper PMC8759724", "about": "(Journal of Enzyme Inhibition and Medicinal Chemistry, 2021)", "key": {"WT PfDHFR [1]": {"molecular_target": "WT PfDHFR (Plasmodium falciparum, UniProt P13922, N108S/R59C)", "test": "Differential scanning fluorimetry", "type": "binding", "conditions": "DSF, apo PfDHFR (no NADPH added with the ligand)"}, "WT PfDHFR [2]": {"molecular_target": "WT PfDHFR (Plasmodium falciparum, UniProt P13922)", "test": "PfDHFR activity assay", "type": "biochemical"}}, "note": "pIC50: −log10 of the molar value.", "data": [{"molecule": "Nc1nc(=O)c2c([nH]1)NCC(CNc1ccc(C(=O)N[C@@H](CCC(=O)O)C(=O)O)cc1)=N2", "note": "[DHF, dihydrofolate]", "values": [{"measurement": "ΔTm (melting temperature variation)", "setting": "WT PfDHFR [1]", "result": "minor melting temperature variations"}]}, {"molecule": "NC(=O)C1=CN([C@@H]2O[C@H](COP(=O)(O)OP(=O)(O)OC[C@H]3O[C@@H](n4cnc5c(N)ncnc54)[C@H](OP(=O)(O)O)[C@@H]3O)[C@@H](O)[C@H]2O)C=CC1", "note": "[NADPH]", "values": [{"measurement": "ΔTm (melting temperature variation)", "setting": "WT PfDHFR [1]", "result": "+4 °C"}]}, {"molecule": "NC(=O)Nc1cccc(C(F)(F)F)c1", "note": "[fragment 148, [3-(trifluoromethyl)phenyl]urea]", "values": [{"measurement": "pIC50", "setting": "WT PfDHFR [2]", "result": 3.33}]}, {"molecule": "tetrahydrofolate [THF]", "values": [{"measurement": "ΔTm (melting temperature variation)", "setting": "WT PfDHFR [1]", "result": "minor melting temperature variations"}]}]}
